Reference: US5723306A, “Monoclonal antibodies for the detection of pyrethroids and a process for their production” (Dragerwerk Aktiengesellschaft, priority 1993, dated 1998)

Legend:
Format in all cases: binding, mouse
[1] = test system: hybridoma clone MAB 3/B4-1/F8; test: competitive immunoassay (ELISA), cross reactivity with MAB 3/B4-1/F8; settings: n.b. = not determinable
Experimental: (§1) The screening conjugates described in Section 1.2 were used for this purpose. In addition, "Maxisorp" (from the Nunc Corporation) microtiter plates were used. The immunoscreening method, i.e., an indirect, competitive immunoassay with free antibodies, is shown in the form of a schematic diagram in FIG. 7. First, each of the microtiter plate depressions was coated with 300 μL of hapten OVA conjugate (10 μg/mL in carbonate buffer) (coating). This was carded out over the course of 15-18 hours at 4° C. Then the depressions were washed 3 times with, for example, PBS Tween 20 buffer. To block the unoccupied bonding sites on the microtiter plate, about 300 μL of 0.1% OVA solution was added to each depression. This batch was incubated for 1-2 hours and then washed again as described. To verify the results, two separate screening processes were used (FIG. 7):
(§2) In this immunoassay, the hapten-OVA conjugates bound in the solid phase (Section 1.2) compete with the free antigen in the form of a solution of a mixture of pyrethroids. For the direct detection (Section 5.1), 100 μL of PBS buffer and 100 μL of cell culture supernatant (Section 4) per depression are incubated for one hour at room temperature under gentle agitation. Then a washing step is carried out with PBS Tween 20 buffer. This is followed by incubation with the peroxidase-(POD)-conjugated anti-mouse antibodies known to those skilled in the art. After the addition of enzyme substrate, the color is developed. The reaction is stopped after 30 minutes with 2N H2 SO4 and evaluated by spectrophotometry. The positive hybridoma cells, which secrete a specific antibody, give a strong color signal.
(§3) For this purpose, 100 μL of analyte solution (10 mg/L of pyrethroid substance in mixture MIX I/II in PBS buffed and 100 μL of culture supernatant (Section 4) per depression in the microtiter plate are incubated for 1 hour at room temperature.
(§4) If the cell culture supernatant contains specific antibodies with high affinity for at least one substance in the mixture in question (MIX I/II), these bind to the free hapten present in excess (pyrethrins/pyrethroids) and not to the hapten conjugate bound in the solid phase. The monoclonal antibodies bound to the hapten are then removed in the following washing step. This is followed by the incubation, known to those skilled in the art, with peroxidase-(POD)-conjugated anti-mouse antibodies and by subsequent addition of enzyme substrate and color development. After a predetermined incubation time, the microtiter plates are evaluated by spectrophotometry. Positive hybridoma cells which secrete an antibody selective for the pyrethroids in MIX I/II give a weaker color signal or no signal at all. Hybridoma cells which secrete antibodies which bind non-specifically to the hapten conjugate cannot be displaced by the excess pyrethroid and give a corresponding color signal. If no antibodies are present in the culture supernatant, there is no color reaction in either of the two cases.
(§5) Pyrethrum, pyrethroids, their derivatives, and/or their metabolites are detected with the help of the hapten screening conjugates and biotin tracers described in Section 1 and by the use of the competitive immunoassay (ELISA) described in Section 5.
(§6) In the direct-competitive test for low-molecular substances such as pyrethroids, a competition for a constant number of antibody binding sites takes place between an unmarked analyte of unknown quantity (here: pyrethroid) and a tracer (marked hapten) of known quantity. The antibody is immobilized on a solid phase. Depending on the amount of unmarked analyte in the sample, the antibody binding sites are occupied to a greater or lesser extent by tracer or analyte. The tracer is detected by a color reaction, which means that the detection signal on the solid phase is inversely proportional to the amount of analyte detected. The color development is measured by spectrophotometry at a defined wavelength. […]

[2] = test system: hybridoma clone MAB 1/E2-5/B5; test: competitive immunoassay (ELISA), cross reactivity with MAB 1/E2-5/B5; settings: n.b. = not determinable
Experimental: as §1, §2, §3, §4, §5, §6

[3] = test system: isolated monoclonal antibodies (groups 3/B4-1/F8 and 1/E2-5/B5); test: competitive ELISA with the isolated monoclonal antibodies (both groups); settings: both antibody groups
Experimental: as §1, with “This batch was incubated for 1-2 hours and then washed again as described. To verify the results, two separate screening processes were used (FIG. 7):” left out
In this immunoassay, the hapten-OVA conjugates bound in the solid phase (Section 1.2) compete with the free antigen in the form of a solution of a mixture of pyrethroids. […] The reaction is stopped after 30 minutes with 2N H2 SO4 and evaluated by spectrophotometry. […]
If the cell culture supernatant contains specific antibodies with high affinity for at least one substance in the mixture in question (MIX I/II), these bind to the free hapten present in excess (pyrethrins/pyrethroids) and not to the hapten conjugate bound in the solid phase. […] After a predetermined incubation time, the microtiter plates are evaluated by spectrophotometry. […]

Row | Structure (SMILES) | % cross reactivity [1] | % cross reactivity [2] | cross reactivity (in words) [3]
1 | CC(C)=CC1C(C(=O)O)C1(C)C (stereo not shown) [CTS, chrysanthemum acid] | n.b. | n.b. | 
2 | O=C(O)c1cccc(Oc2ccccc2)c1 [PBZ, 3-phenoxybenzoic acid] | n.b. | n.b. | 
3 | C=CCC1=C(C)C(OC(=O)C2C(C=C(C)C)C2(C)C)CC1=O (stereo not shown) [allethrin] | 45% | 100% | 
4 | C=CCC1=C(C)C(OC(=O)[C@@H]2[C@@H](C=C(C)C)C2(C)C)CC1=O (stereo partly shown) [bioallethrin] | 100% | 104% | 
5 | CC1(C)[C@H](C(=O)O)[C@@H]1C=C(Cl)Cl [cis-PMS, (1R,cis)-permethric acid] | n.b. | n.b. | little or no cross-reactivity
6 | CC1(C)C(C=C(Cl)Cl)C1C(=O)OC(C#N)c1ccc(F)c(Oc2ccccc2)c1 (stereo not shown) [cyfluthrin] | n.b. |  | 
7 | CC1(C)C(C=C(Cl)Cl)C1C(=O)OC(C#N)c1cccc(Oc2ccccc2)c1 (stereo not shown) [cypermethrin] | n.b. |  | 
8 | CC1(C)[C@H](C(=O)O[C@H](C#N)c2cccc(Oc3ccccc3)c2)[C@@H]1C=C(Br)Br [deltamethrin] | n.b. | n.b. | 
9 | CC1(C)[C@H](C=C(Cl)Cl)[C@H]1C(=O)OCc1c(F)c(F)c(F)c(F)c1F [fenfluthrin] | 2% | 13% | 
10 | CC(C)C(C(=O)OC(C#N)c1cccc(Oc2ccccc2)c1)c1ccc(Cl)cc1 (stereo not shown) [fenvalerat] | n.b. | n.b. | 
11 | CC1(C)C(C=C(Cl)Cl)C1C(=O)OCc1cccc(Oc2ccccc2)c1 (stereo not shown) [permethrin] | n.b. |  | 
12 | CC(C)=CC1C(C(=O)OCc2cccc(Oc3ccccc3)c2)C1(C)C (stereo not shown) [phenothrin] | n.b. | 86% | 
13 | CC1(C)[C@H](C=C(Cl)Cl)[C@H]1C(=O)O [trans-PMS, (1R,trans)-permethric acid] | n.b. | > 1% | little or no cross-reactivity
